Measurements reported in patent US20130138221A1, “METHODS AND COMPOSITIONS FOR IMPROVING IMPLANT OSSEOINTEGRATION” (Novartis AG, priority 2010, published 2013).

B1: Antibody 1: anti-sclerostin antibody with VH domain SEQ ID NO: 1 and VL domain SEQ ID NO: 2, disclosed in WO09047356 (antibody, V domains shown)
VH: QVQLVESGGGLVQPGGSLRLSCAASGFTFRSHWLSWVRQAPGKGLEWVSNINYDGSSTYYADSVKGRFTISRDNSKNTLYLQMNSLRAEDTAVYYCARDTYLHFDYWGQGTLVTVSS
VL: DIALTQPASVSGSPGQSITISCTGTSSDVGDINDVSWYQQHPGKAPKLMIYDVNNRPSGVSNRFSGSKSGNTASLTISGLQAEDEADYYCQSYAGSYLSEVFGGGTKLTVLGQ
modifications: Antibody Vh; Antibody Vl

Experiments:
[1] = test system: bone resorption; details: zoledronic acid versus etidronate; reference 22; cited from earlier work
[2] = test system: estrogen-deprived (OVX) Wistar rats with titanium screw implant in the left tibia; assay: biomechanical removal torque testing of titanium screw implants in tibia of ovariectomized rats; type: in vivo, rat; details: 4 weeks post-implantation, implant coated with 8.5 μg zoledronate and/or Antibody 1 100 mg/kg iv. weekly, FIG. 2
Method: Titanium screw type implants (3 mm length, 1-1.5 mm diameter, self-cutting) were prepared by either (1) sand blasting and acid etching with no further coating, or (2) sand blasted and acid etched, then coated with 8.5 μg zoledronate. The coating was carried out by warming the implants and then dip coating with a zolendronate stearate salt and then allowing to dry at 80° C. as described for alendronic acid coating in reference 36. The […] and drying cycle was carried out 3 times. Skeletally mature virgin Wistar rats (6.5-month-old, Harlan laboratories, Switzerland) were estrogen-deprived by ovariectomy (OVX) under narcosis. Bone mineral density loss was confirmed in the proximal tibia metaphysis (4.5 mm distal from proximal end) three months post-ovariectomy (compared to intact controls) by peripheral quantitative computed tomography as described previously. The titanium screws were implanted approximately 3 mm distal to the proximal end of the left tibia under narcosis. Animals received a sand-blasted acid edged titanium implant with or without zoledronic acid coating which were prepared as above. Animals were distributed into the following groups [n=16/group and time point]: 1. OVX group receiving control implant 2. […] Intact group receiving control implant Animals were sacrificed 2 and 4 weeks post-implantation. […]

Molecule | potency relative to etidronate [1] | increase in removal torque versus OVX control implant (group 1) [2] [%]
O=P(O)(O)C(O)(Cn1ccnc1)P(=O)(O)O [zoledronic acid, 1-hydroxy-2-(imidazol-1-yl)ethane-1,1-diphosphonic acid] | 10,000 times | –
B1 | – | 32
